For orientation: pIC50 means the IC50 on a negative log10 scale, so that one unit is a factor of ten.

pIC50: −log10 of the molar value. Structures can show the parent of a compound that is named as a salt. A value given as a limit tells only on which side of the number the result lay.

The test system of one assay is leukotriene pathway in human whole blood (LTB4 levels). In words: Human whole blood assay (A23187-stimulated LTB4). Type of assay: cell-based. The following applies: Homo sapiens, human whole blood diluted 1:1, A23187-stimulated; read-out: LTB4 IC50 1:1. On the procedure:
The ability of the compounds of the present invention to treat a FLAP-mediated disease and/or disorder, or associated symptoms or complications thereof, was determined using the following procedures. Binding assay data represent the average value obtained from two different assay plates, with samples run in duplicate on each plate. Human whole blood assay data represent a single replicate on an assay plate using whole blood from at least one healthy donor.
An in vitro cellular assay was performed using human whole blood collected in heparin-containing tubes, which was used to test the ability of compounds to modulate the leukotriene pathway in human whole blood. The blood was diluted 1:1 in RPMI medium, pre-incubated for 15 min at 37° Celsius with test compounds at various concentrations, and then stimulated with calcium ionophore, A23187 (7 μg/mL), for 30 min at 37° Celsius. The samples were then centrifuged and plasma was removed. The plasma was diluted in assay buffer and LTB4 levels were measured using a commercial kit (Enzo Life Sciences). The concentration of each compound that was required for half-maximal inhibition (modulation) of recombinant enzyme activity (IC50) was calculated by a 4-parameter equation using the program GraphPad Prism (GraphPad software).
For `CC(O)CNS(=O)(=O)c1ccccc1-c1ccc(-c2cnc(N)c(C#N)n2)c(F)c1` (stereo in doubt) [Example 415, 4′-(5-Amino-6-cyanopyrazin-2-yl)-3′-fluoro-N-[(2R)-2-hydroxypropyl]biphenyl-2-sulfonamide], the pIC50 is 7.43.

The same assay, now with this note: Homo sapiens, human whole blood diluted 1:1 in RPMI, A23187-stimulated LTB4; read-out: LTB4 IC50 1:1.
`Nc1cnc(-c2ccc(-c3ccccc3S(=O)(=O)NC3Cc4ccccc4C3)cc2F)cn1` [Example 21, 4′-(5-Aminopyrazin-2-yl)-N-(2,3-dihydro-1H-inden-2-yl)-3′-fluorobiphenyl-2-sulfonamide]: the pIC50 was 7.46.

For `C[C@H](NS(=O)(=O)c1ccccc1-c1ccc(-c2cnc(N)cn2)c(F)c1)c1ccccc1` [Example 24, (R)-4′-(5-Aminopyrazin-2-yl)-3′-fluoro-N-[(1R)-1-phenylethyl]biphenyl-2-sulfonamide], the pIC50 is 7.32.

Turning to `C[C@@H](CO)NS(=O)(=O)c1ccccc1-c1ccc(-c2cnc(N)cn2)c(F)c1` [Example 25, (R)-4′-(5-Aminopyrazin-2-yl)-3′-fluoro-N-[(1R)-2-hydroxy-1-methylethyl]biphenyl-2-sulfonamide], the pIC50 is 7.64.

On to `Nc1cnc(-c2ccc(-c3ccccc3S(=O)(=O)NCCCO)cc2F)cn1` [Example 80, 4′-(5-Aminopyrazin-2-yl)-3′-fluoro-N-(3-hydroxypropyl)biphenyl-2-sulfonamide], for which the pIC50 was 7.06.

As to `Nc1cnc(-c2ccc(-c3ccccc3S(=O)(=O)N3CC[C@@H](N)C3)cc2F)cn1` [Example 92, (R)-5-(2′-((3-Aminopyrrolidin-1-yl)sulfonyl)-3-fluoro-[1,1′-biphenyl]-4-yl)pyrazin-2-amine], the pIC50 was 6.65.

On to `Nc1cnc(-c2ccc(-c3ccccc3S(=O)(=O)N3CC[C@H](N)C3)cc2F)cn1` [Example 93, (S)-5-(2′-((3-Aminopyrrolidin-1-yl)sulfonyl)-3-fluoro-[1,1′-biphenyl]-4-yl)pyrazin-2-amine], for which the pIC50 was 6.89.

Consider `CS(=O)(=O)NS(=O)(=O)c1ccccc1-c1ccc(-c2cnc(N)cn2)c(F)c1` [Example 96, 4′-(5-Aminopyrazin-2-yl)-3′-fluoro-N-(methylsulfonyl)biphenyl-2-sulfonamide], for which the pIC50 is < 5.00.

`CC(C)(CCO)NS(=O)(=O)c1ccccc1-c1ccc(-c2cnc(N)cn2)c(F)c1` [Example 102, 4′-(5-Aminopyrazin-2-yl)-3′-fluoro-N-(3-hydroxy-1,1-dimethylpropyl)biphenyl-2-sulfonamide]: the pIC50 is 7.46.

For `CC(C)(CO)CNS(=O)(=O)c1ccccc1-c1ccc(-c2cnc(N)cn2)c(F)c1` [Example 103, 4′-(5-Aminopyrazin-2-yl)-3′-fluoro-N-(3-hydroxy-2,2-dimethylpropyl)biphenyl-2-sulfonamide], the pIC50 is 7.77.

As for `C[C@@H]([C@@H](O)c1ccccc1)N(C)S(=O)(=O)c1ccccc1-c1ccc(-c2cnc(N)cn2)c(F)c1` [Example 118, 4′-(5-aminopyrazin-2-yl)-3′-fluoro-N-((1S,2S)-1-hydroxy-1-phenylpropan-2-yl)-N-methyl-[1,1′-biphenyl]-2-sulfonamide], the pIC50 was 8.22.

Consider `CN[C@@H]1CCN(S(=O)(=O)c2ccccc2-c2ccc(-c3cnc(N)cn3)c(F)c2)C1` [Example 126, (R)-5-(3-Fluoro-2′-{[3-(methylamino)pyrrolidin-1-yl]sulfonyl}biphenyl-4-yl)pyrazin-2-amine], for which the pIC50 is 6.24.

For `Nc1cnc(-c2ccc(-c3ccccc3S(=O)(=O)N3c4ccccc4C[C@H]3CO)cc2F)cn1` [Example 135, (S)-(1-{[4′-(5-Aminopyrazin-2-yl)-3′-fluorobiphenyl-2-yl]sulfonyl}-2,3-dihydro-1H-indol-2-yl)-methanol], the pIC50 was 7.80.

For the compound `Nc1cnc(-c2ccc(-c3ccccc3S(=O)(=O)N[C@H]3c4ccccc4C[C@H]3O)cc2F)cn1` [Example 160, 4′-(5-Aminopyrazin-2-yl)-3′-fluoro-N-((1S,2R)-2-hydroxy-2,3-dihydro-1H-inden-1-yl)-[1,1′-biphenyl]-2-sulfonamide], the pIC50 was 8.30.

For the compound `Nc1cnc(-c2ccc(-c3ccccc3S(=O)(=O)N[C@@H]3c4ccccc4C[C@@H]3O)cc2F)cn1` [Example 161, 4′-(5-Aminopyrazin-2-yl)-3′-fluoro-N-((1R,2S)-2-hydroxy-2,3-dihydro-1H-inden-1-yl)-[1,1′-biphenyl]-2-sulfonamide], the pIC50 was 7.32.

For the compound `N#CCCNS(=O)(=O)c1ccccc1-c1ccc(-c2cnc(N)cn2)c(F)c1` [Example 169, 4′-(5-Aminopyrazin-2-yl)-N-(2-cyanoethyl)-3′-fluorobiphenyl-2-sulfonamide], the pIC50 is 7.64.

Take `Nc1cnc(-c2ccc(-c3ccccc3S(=O)(=O)N3CCN(c4cnccn4)CC3)cc2F)cn1` [Example 176, 5-{3-Fluoro-2′-[(4-pyrazin-2-ylpiperazin-1-yl)sulfonyl]biphenyl-4-yl}pyrazin-2-amine]: the negative logarithm of the IC50 (pIC50) is 8.00.

As for `Nc1cnc(-c2ccc(-c3ccccc3S(=O)(=O)N3CCN(c4ncccn4)CC3)cc2F)cn1` [Example 177, 5-{3-Fluoro-2′-[(4-pyrimidin-2-ylpiperazin-1-yl)sulfonyl]biphenyl-4-yl}pyrazin-2-amine], the negative-log IC50 (pIC50) is 6.52.

For the compound `Nc1cnc(-c2ccc(-c3ccccc3S(=O)(=O)NC3(CO)CCCC3)cc2F)cn1` [Example 179, 4′-(5-Aminopyrazin-2-yl)-3′-fluoro-N-[1-(hydroxymethyl)cyclopentyl]biphenyl-2-sulfonamide], the pIC50 is 8.70.

As for `Nc1cnc(-c2ccc(-c3ccccc3NS(=O)(=O)N3CCCC3)cc2F)cn1` [Example 181, N-[4′-(5-Aminopyrazin-2-yl)-3′-fluorobiphenyl-2-yl]pyrrolidine-1-sulfonamide], the pIC50 was 6.62.

Turning to `Nc1cnc(-c2ccc(-c3ccccc3S(=O)(=O)N3CC[C@H](O)C3)cc2F)cn1` [Example 184, (3S)-1-{[4′-(5-Aminopyrazin-2-yl)-3′-fluorobiphenyl-2-yl]sulfonyl}pyrrolidin-3-ol trifluoroacetic acid salt], the pIC50 is 7.68.

Take `CNS(=O)(=O)c1cc(C(F)(F)F)ccc1-c1ccc(-c2cnc(N)cn2)c(F)c1` [Example 208, 4′-(5-Aminopyrazin-2-yl)-3′-fluoro-N-methyl-4-(trifluoromethyl)biphenyl-2-sulfonamide]: the negative-log IC50 (pIC50) was 7.85.

On to `Nc1cnc(-c2ccc(-c3ccc(C(F)(F)F)cc3S(=O)(=O)NCCO)cc2F)cn1` [Example 210, 4′-(5-Aminopyrazin-2-yl)-3′-fluoro-N-(2-hydroxyethyl)-4-(trifluoromethyl)biphenyl-2-sulfonamide], for which the pIC50 was 7.70.

With `CC(CO)(CO)NS(=O)(=O)c1ccccc1-c1ccc(-c2cnc(N)nc2)c(F)c1` [Example 255, 4′-(2-Aminopyrimidin-5-yl)-3′-fluoro-N-[2-hydroxy-1-(hydroxymethyl)-1-methylethyl]biphenyl-2-sulfonamide], the pIC50 was 7.12.

Consider `Nc1ncc(-c2ccc(-c3ccccc3S(=O)(=O)N3CCN(C4CC4)CC3)cc2F)cn1` [Example 281, 5-{2′-[(4-Cyclopropylpiperazin-1-yl)sulfonyl]-3-fluorobiphenyl-4-yl}pyrimidin-2-amine trifluoroacetic acid salt], for which the pIC50 is 7.36.

With `Nc1ncc(-c2ccc(-c3ccccc3S(=O)(=O)N3CCCC3)cc2F)cn1` [Example 298, 5-[3-Fluoro-2′-(pyrrolidin-1-ylsulfonyl)biphenyl-4-yl]pyrimidin-2-amine trifluoroacetic acid salt], the pIC50 was 5.93.

`N#CC1CN(S(=O)(=O)c2ccccc2-c2ccc(-c3cnc(N)nc3)c(F)c2)C1` [Example 314, 1-((4′-(2-Aminopyrimidin-5-yl)-3′-fluoro-[1,1′-biphenyl]-2-yl)sulfonyl)azetidine-3-carbonitrile]: the pIC50 is 6.75.

`Nc1ncc(-c2ccc(-c3ccccc3S(=O)(=O)Cc3nc(C4CC4)no3)cc2F)cn1` [Example 321, 5-(2′-{[(3-Cyclopropyl-1,2,4-oxadiazol-5-yl)methyl]sulfonyl}-3-fluorobiphenyl-4-yl)pyrimidin-2-amine]: the pIC50 is 5.07.

Take `CC(C)(C)OC(=O)N1CC(O)(CNS(=O)(=O)c2ccccc2-c2ccc(-c3ccc(N)nc3)c(F)c2)C1` [Example 357, tert-Butyl 3-((4′-(6-aminopyridin-3-yl)-3′-fluoro-[1,1′-biphenyl]-2-ylsulfonamido)methyl)-3-hydroxyazetidine-1-carboxylate]: the pIC50 was 5.95.

For the compound `NS(=O)(=O)c1ccccc1-c1ccc(-c2cnc3[nH]ccc3c2)c(F)c1` [Example 368, 3′-Fluoro-4′-(1H-pyrrolo[2,3-b]pyridin-5-yl)biphenyl-2-sulfonamide], the pIC50 is 6.75.

For `O=S1(=O)CCN(S(=O)(=O)c2ccccc2-c2ccc(-c3cnc4[nH]ccc4n3)c(F)c2)CC1` [Example 382, 2-{2′-[(1,1-Dioxidothiomorpholin-4-yl)sulfonyl]-3-fluorobiphenyl-4-yl}-5H-pyrrolo[2,3-b]pyrazine], the pIC50 was 7.96.

Still in this assay, the particulars now being: Homo sapiens, read-out: LTB4 IC50 1:1.
As to `C[Si](C)(C)CCOCS(=O)(=O)c1ccccc1-c1ccc(-c2cnc(N)nc2)c(F)c1` [Example 338, 5-[3-Fluoro-2′-({[2-(trimethylsilyl)ethoxy]methyl}sulfonyl)biphenyl-4-yl]pyrimidin-2-amine formate salt], the negative-log IC50 (pIC50) is 5.96.
